Where a name gives a salt, the structure may show the parent alone. Read-outs that look alike come from different tables or passages of the source.
Columns and labels:
[1] = test system: LPS-induced microglia activation; assay: Image-based assay of LPS-induced microglia activation (HTS and dose response); format: cell-based, rat; settings: for inhibition at 10 µM: Rattus norvegicus, Microglia, read-out: LPS % inhibition
[2] = test system: fibrin- and LPS-induced microglia activation; assay: cells; format: cell-based, rat
primary rat microglia [3] = test system: primary rat microglia
primary rat microglia [4] = assay: Cell toxicity (dead cells, size <150 μm2) in coated fibrin (cFib) assay; settings: primary microglia HTS;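 note: share of dead cells sized under 150 µm2 at 10 µM in fibrin-stimulated microglia HTS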
[5] = test system: fibrin-induced microglia activation; assay: Image-based assay of fibrin-induced microglia activation (HTS and dose response); format: cell-based, rat; settings: primary microglia HTS, fibrin stimulation; for inhibition at 10 µM: Rattus norvegicus, Microglia, read-out: Fibrin % inhibition
[6] = classification by fibrin and LPS inhibition in HTS
[7] = fibrin stimulation, cell size <150 μm2 as marker of toxicity
[8] = cell size >800 μm2 as marker of activation

SMILES | inhibition at 10 µM ([1]; 48 h) [%] | Quadrant (FIG. 5b) [2, 6] | LPS % cell toxicity (primary rat microglia [3]; rat) [%] | Fibrin % cell toxicity (primary rat microglia [4]; [7]) [%] | inhibition at 10 µM [5, 8] [%] | inhibition at 10 µM ([1]; primary microglia HTS, LPS stimulation, compounds at 10 μM) [%] | Quadrant (FIG. 5b) ([2]; quadrant by fibrin and LPS inhibition, HTS at 10 μM) | Fibrin % cell toxicity (primary rat microglia [4]; fibrin assay, dead cells (size <150 μm2)) [%] | inhibition at 10 µM ([5]; compounds at 10 μM) [%] | LPS % inhibition [1] [%] | LPS % cell toxicity (primary rat microglia [3]) [%] | Fibrin % inhibition [5, 8] [%] | inhibition at 10 µM ([1]; 48 h, primary microglia HTS, LPS stimulation, cell size >800 μm2 as marker of activation) [%]
OC(CCN1CCCC1)(c1ccccc1)C1CCCCC1 (stereo not drawn) [Procyclidine] | 26 | Q4 | 1 | 1 | 0 |  |  |  |  |  |  |  | 
Nc1ccc2cc3ccc(N)cc3nc2c1 [Proflavine] |  |  | 59 |  |  | 132 | Q2 | 82 | 113 |  |  |  | 
CCCN(CCC)C(=O)C(CCC(=O)O)NC(=O)c1ccccc1 (stereo not drawn) [Proglumide] | -1 | Q4 | 0 | 1 | -4 |  |  |  |  |  |  |  | 
CC(C)NC(=N)NC(=N)Nc1ccc(Cl)cc1 [Proguanil; Chlorguanide Hydrochloride] |  | Q4 |  | 0 |  |  |  |  |  | 20 | 1 | −7 | 
CC(CN1c2ccccc2Sc2ccccc21)N(C)C (stereo not drawn) [Promethazine] | 5 | Q4 | 0 | 0 | -30 |  |  |  |  |  |  |  | 
CC(C)[N+](C)(CCOC(=O)C1c2ccccc2Oc2ccccc21)C(C)C [Propantheline] | 20 | Q4 | 0 | 1 | -7 |  |  |  |  |  |  |  | 
CCCOc1ccc(C(=O)OCCN(CC)CC)cc1N [Proparacaine] | 13 | Q4 | 0 | 1 | -6 |  |  |  |  |  |  |  | 
CNC(=O)Oc1ccccc1OC(C)C [Propoxur] |  | Q4 | 0 | 1 | -51 |  |  |  |  |  |  |  | 8
CCCOc1cc(N)ccc1C(=O)OCCN(CC)CC [Propoxycaine] | 14 | Q4 | 0 | 0 | 13 |  |  |  |  |  |  |  | 
C[C@@H]1O[C@@H](O[C@@H]2C=C3CC[C@@H]4[C@H](CC[C@]5(C)[C@@H](c6ccc(=O)oc6)CC[C@]45O)[C@@]3(C)CC2)[C@H](O)[C@H](O)[C@H]1O [Proscillaridin] | 16 | Q4 | 0 | 1 | 8 |  |  |  |  |  |  |  | 
CCCc1cc(C(N)=S)ccn1 [Protionamide, Ektebin] |  | Q4 |  | 1 |  |  |  |  |  | 12 | 0 | −18 | 
C=CC1=C(C)c2cc3[nH]c(cc4nc(cc5[nH]c(cc1n2)c(C)c5CCC(=O)O)C(CCC(=O)O)=C4C)c(C)c3C=C [Protoporphyrin Ix] | 2 | Q4 | 0 | 1 | -70 |  |  |  |  |  |  |  | 
CC(O)Cn1cnc2c1c(=O)n(C)c(=O)n2C (stereo not drawn) [Proxyphylline] | 11 | Q4 | 0 | 1 | -21 |  |  |  |  |  |  |  | 
Cc1oc(=O)oc1CN1CCN(c2cc3c(cc2F)c(=O)c(C(=O)O)c2n3C(C)S2)CC1 (stereo not drawn) [Prulifloxacin] | 16 | Q4 | 0 | 1 | 7 |  |  |  |  |  |  |  | 
NC(=O)c1cnccn1 [Pyrazinamide] | 13 | Q4 | 0 | 0 | -20 |  |  |  |  |  |  |  | 
CN(C)C(=O)Oc1ccc[n+](C)c1 [Pyridostigmine] | 9 | Q4 | 0 | 1 | 4 |  |  |  |  |  |  |  | 
CCc1nc(N)nc(N)c1-c1ccc(Cl)cc1 [Pyrimethamine] | 12 | Q4 | 1 | 1 | -11 |  |  |  |  |  |  |  | 
CCC1(CC)C(=O)C=CNC1=O [Pyrithyldione] | 9 | Q4 | 0 | 1 | -24 |  |  |  |  |  |  |  | 

SMILES | inhibition at 10 µM ([1]; 48 h) [%] | Quadrant (FIG. 5b) [2, 6] | LPS % cell toxicity (primary rat microglia [3]; rat) [%] | Fibrin % cell toxicity (primary rat microglia [4]; [7]) [%] | inhibition at 10 µM [5, 8] [%] | inhibition at 10 µM ([1]; primary microglia HTS, LPS stimulation, compounds at 10 μM) [%] | Quadrant (FIG. 5b) ([2]; quadrant by fibrin and LPS inhibition, HTS at 10 μM) | Fibrin % cell toxicity (primary rat microglia [4]; fibrin assay, dead cells (size <150 μm2)) [%] | inhibition at 10 µM ([5]; compounds at 10 μM) [%] | LPS % inhibition [1] [%] | LPS % cell toxicity (primary rat microglia [3]) [%] | Fibrin % inhibition [5, 8] [%] | inhibition at 10 µM ([1]; 48 h, primary microglia HTS, LPS stimulation, cell size >800 μm2 as marker of activation) [%]
Cc1ncc(CSSCc2cnc(C)c(O)c2CO)c(CO)c1O [Pyritinol] | 4 | Q4 | 0 | 1 | -15 |  |  |  |  |  |  |  | 
COc1ccc2nc3cc(Cl)ccc3c(Nc3cc(CN4CCCC4)c(O)c(CN4CCCC4)c3)c2n1.O=P(O)(O)O.O=P(O)(O)O.O=P(O)(O)O.O=P(O)(O)O [Pyronaridine Tetraphosphate] |  | Q4 |  | 1 |  |  |  |  |  | 9 | 0 | 16 | 
CCOC(=O)[C@H](CCc1ccccc1)N[C@@H](C)C(=O)N1Cc2ccccc2C[C@H]1C(=O)O [Quinapril] | 13 | Q4 | 0 | 1 | -24 |  |  |  |  |  |  |  | 
C[C@H](N[C@@H](CCc1ccccc1)C(=O)O)C(=O)N1Cc2ccccc2C[C@H]1C(=O)O [Quinaprilat] | 5 | Q4 | 0 | 1 | -5 |  |  |  |  |  |  |  | 
C#C[C@]1(O)CC[C@H]2[C@@H]3CCc4cc(OC5CCCC5)ccc4[C@H]3CC[C@@]21C [Quinestrol] | 24 | Q4 | 0 | 0 | 15 |  |  |  |  |  |  |  | 
C=C[C@H]1CN2CC[C@H]1C[C@H]2[C@H](OC(=O)OCC)c1ccnc2ccc(OC)cc12 [Quinine Ethyl Carbonate] | -11 | Q4 | 0 | 0 | -21 |  |  |  |  |  |  |  | 
O=C(O)/C=C\C(=O)O.O=C(O)/C=C\C(=O)O.c1ccc2nc(N3CCNCC3)ccc2c1 [Quipazine Dimaleate, Quipazine Maleate] |  | Q4 |  | 1 |  |  |  |  |  | 9 | 0 | −18 | 
COCCCOc1ccnc(C[S+]([O-])c2nc3ccccc3[nH]2)c1C (stereo not drawn) [Rabeprazole] | 3 | Q4 | 0 | 0 | -46 |  |  |  |  |  |  |  | 
CC(=O)SCC(Cc1ccccc1)C(=O)NCC(=O)OCc1ccccc1 (stereo not drawn) [Racecadotril] | 18 | Q4 | 0 | 1 | -51 |  |  |  |  |  |  |  | 
CCC(=O)NCC[C@@H]1CCc2ccc3c(c21)CCO3 [Ramelteon] | 20 | Q4 | 0 | 0 | 25 |  |  |  |  |  |  |  | 
Cc1c(NC(C)C)c(=O)n(-c2ccccc2)n1C [Ramifenazone] | 9 | Q4 | 0 | 0 | -11 |  |  |  |  |  |  |  | 
CCOC(=O)[C@H](CCc1ccccc1)N[C@@H](C)C(=O)N1[C@H](C(=O)O)C[C@@H]2CCC[C@@H]21 [Ramipril] | 16 | Q4 | 0 | 0 | 8 |  |  |  |  |  |  |  | 
CNC(=C[N+](=O)[O-])NCCSCc1ccc(CN(C)C)o1 [Ranitidine] | 15 | Q4 | 0 | 1 | 35 |  |  |  |  |  |  |  | 
CCN1CCC[C@H]1CNC(=O)c1c(OC)ccc(Br)c1OC [Remoxipride] | 3 | Q4 | 0 | 1 | -14 |  |  |  |  |  |  |  | 
CCOc1cc(CC(=O)N[C@@H](CC(C)C)c2ccccc2N2CCCCC2)ccc1C(=O)O [Repaglinide] | 18 | Q4 | 0 | 1 | -14 |  |  |  |  |  |  |  | 
CC(=O)Oc1cccc(O)c1 [Resorcinol Monoacetate] | 26 | Q4 | 1 | 1 | 12 |  |  |  |  |  |  |  | 
CC(=O)OC/C=C(C)/C=C/C=C(C)/C=C/C1=C(C)CCCC1(C)C [Retinyl Acetate] | 15 | Q4 | 0 | 1 | 3 |  |  |  |  |  |  |  | 
NC[C@H]1O[C@H](O[C@H]2[C@H](O[C@@H]3O[C@H](CO)[C@@H](O)[C@H]3O)[C@@H](O)[C@H](N)C[C@@H]2N)[C@H](N)[C@@H](O)[C@@H]1O.O=S(=O)(O)O [Ribostamycin Sulfate] |  | Q4 |  | 0 |  |  |  |  |  | 13 | 0 | −16 | 
